Data published in ChEMBL document CHEMBL1155780, “Lack of aquaporin-4 water transport inhibition by antiepileptics and arylsulfonamides” (Bioorg Med Chem, 2008).

Target: Aquaporin-4 (Homo sapiens) (UniProt P55087)
Conditions: FRT
Description: Inhibition of AQP4 expressed in rat FRT cells assessed as osmotic water permeability at 100 uM after 15 mins by stopped-flow light scattering method

Aquaporin-4 (Homo sapiens), sequence (P55087 whole entry): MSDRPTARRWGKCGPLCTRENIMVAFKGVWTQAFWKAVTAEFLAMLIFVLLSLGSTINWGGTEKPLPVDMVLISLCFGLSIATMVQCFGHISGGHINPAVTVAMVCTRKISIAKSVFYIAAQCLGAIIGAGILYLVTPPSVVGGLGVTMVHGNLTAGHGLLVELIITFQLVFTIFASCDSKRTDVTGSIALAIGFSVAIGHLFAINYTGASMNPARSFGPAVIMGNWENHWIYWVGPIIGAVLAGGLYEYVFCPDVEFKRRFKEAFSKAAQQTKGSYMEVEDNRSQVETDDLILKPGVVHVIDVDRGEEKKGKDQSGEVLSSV

| Compound | permeability [×10⁻⁶ cm/s] |
| --- | --- |
| CC(=O)Nc1ccc(S(N)(=O)=O)cc1 | 12900 |
| NS(=O)(=O)Cc1noc2ccccc12 | 12900 |
| CNS(=O)(=O)Cc1ccc2[nH]cc(CCN(C)C)c2c1 | 12900 |
| CC(=O)Nc1nnc(S(N)(=O)=O)s1 | 12900 |
| CCOc1ccc2nc(S(N)(=O)=O)sc2c1 | 12900 |
| O=C1NC(=O)C(c2ccccc2)(c2ccccc2)N1 | 12900 |
| CC1(C)O[C@@H]2[C@@H](CO[C@@]3(COS(N)(=O)=O)OC(C)(C)O[C@@H]23)O1 | 12900 |
